Measured values: patent US20240066027A1 (DOMAIN THERAPEUTICS, priority 2020, published 2024)
pIC50: −log10 of the molar value.

Tests used:
[1] = biological target: T1, human PAR-2 (hPAR-2) receptor expressed in HEK-293 T cells in an endogenous manner (Homo sapiens, UniProt P55085); assay: In vitro human PAR-2 functional antagonist activity using calcium assays (Fluo4AM, FLIPR Tetra); assay type: cell-based; details: HEK-293 T cells stimulated by an EC80 of the 2-Furoyl-LIGRLO-NH2 peptide after 10 min incubation with compound; 20 concentrations, duplicate, two independent experiments
T1 construct: human PAR-2 (hPAR-2) receptor expressed in HEK-293 T cells in an endogenous manner; endogenous in cells; host or cells: HEK-293 T cells
T1 sequence (P55085 26-397): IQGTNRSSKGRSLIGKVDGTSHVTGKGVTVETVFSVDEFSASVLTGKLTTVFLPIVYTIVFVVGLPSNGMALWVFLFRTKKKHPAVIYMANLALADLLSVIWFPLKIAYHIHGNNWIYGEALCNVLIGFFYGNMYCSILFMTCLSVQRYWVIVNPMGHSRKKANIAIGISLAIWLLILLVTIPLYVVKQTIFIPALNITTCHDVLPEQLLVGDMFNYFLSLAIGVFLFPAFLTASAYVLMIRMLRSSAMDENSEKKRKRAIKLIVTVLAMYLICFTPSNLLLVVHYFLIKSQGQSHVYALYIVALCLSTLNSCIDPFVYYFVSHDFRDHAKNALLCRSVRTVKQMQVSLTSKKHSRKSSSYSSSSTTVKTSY
Procedure, shortened: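 Antagonist activity was taken as the decrease in the calcium response to an EC80 of 2-Furoyl-LIGRLO-NH2, measured over 5 min. The agonist was added after a 10 min compound-alone step on the same plate. The HEK-293 T cells express PAR-2 endogenously and were loaded with 1 μM Fluo4AM. Signals were referenced to buffer and EC80-alone controls.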

| SMILES | melting point [°C] | pIC50 [1] |
| --- | --- | --- |
| CC(C)Cn1cc(-c2ccccc2)c2ccc(C(=O)N3CCNC(=O)C3(C)C)nc21 [Example 49, 4-(1-isobutyl-3-phenyl-pyrrolo[2,3-b]pyridine-6-carbonyl)-3,3-dimethyl-piperazin-2-one] | 175 to 178 | 5.00 to 7.70 |
| CC(C)Cn1cc(-c2ccncc2)c2ccc(C(=O)N3CCNC(=O)C3(C)C)nc21 [Example 37, 4-(1-isobutyl-3-(pyridin-4-yl)-1H-pyrrolo[2,3-b]pyridine-6-carbonyl)-3,3-dimethylpiperazin-2-one] | 200 to 210 | < 5.00 |
| CC(C)Cn1cc(C2=CCNCC2)c2ccc(C(=O)N3CCNC(=O)C3(C)C)nc21 [Example 47, 4-(3-(1,2,3,6-tetrahydropyridin-4-yl)-1-isobutyl-1H-pyrrolo[2,3-b]pyridine-6-carbonyl)-3,3-dimethylpiperazin-2-one] | 140 to 145 | < 5.00 |
| Cc1ccc(-c2cn(CC(C)C)c3nc(C(=O)N4CCNC(=O)C4(C)C)ccc23)cc1 [Example 51, 4-[1-isobutyl-3-(p-tolyl)pyrrolo[2,3-b]pyridine-6-carbonyl]-3,3-dimethyl-piperazin-2-one] | 207 to 212 | 5.00 to 7.70 |
| CC(C)Cn1cc(-c2ccc(C(F)(F)F)nc2)c2ccc(C(=O)N3CCNC(=O)C3(C)C)nc21 [Example 43, 4-(1-isobutyl-3-(6-(trifluoromethyl)pyridin-3-yl)-1H-pyrrolo[2,3-b]pyridine-6-carbonyl)-3,3-dimethylpiperazin-2-one] | > 250 | 5.00 to 7.70 |
| CC(C)Cn1cc(C2CCCCC2)c2ccc(C(=O)N3CCNC(=O)C3(C)C)nc21 [Example 48, 4-(3-cyclohexyl-1-isobutyl-1H-pyrrolo[2,3-b]pyridine-6-carbonyl)-3,3-dimethylpiperazin-2-one] | 226 to 229 | 5.00 to 7.70 |
| CC(C)Cn1cc(-c2cncnc2)c2ccc(C(=O)N3CCNC(=O)C3(C)C)nc21 [Example 36, 4-(1-isobutyl-3-(pyrimidin-5-yl)-1H-pyrrolo[2,3-b]pyridine-6-carbonyl)-3,3-dimethylpiperazin-2-one] | 185 to 190 | < 5.00 |
| CC(C)Cn1cc(-c2cnn(C)c2)c2ccc(C(=O)N3CCNC(=O)C3(C)C)nc21 [Example 44, 4-(1-isobutyl-3-(1-methyl-1H-pyrazol-4-yl)-1H-pyrrolo[2,3-b]pyridine-6-carbonyl)-3,3-dimethylpiperazin-2-one] | > 250 | < 5.00 |
| CC(C)Cn1cc(C2=CCOCC2)c2ccc(C(=O)N3CCNC(=O)C3(C)C)nc21 [Example 45, 4-(3-(3,6-dihydro-2H-pyran-4-yl)-1-isobutyl-1H-pyrrolo[2,3-b]pyridine-6-carbonyl)-3,3-dimethylpiperazin-2-one] | 225 to 230 | < 5.00 |
| CC(C)Cn1cc(-c2ccc(F)cc2)c2ccc(C(=O)N3CCNC(=O)C3(C)C)nc21 [Example 56, 4-[1-isobutyl-3-[4-fluorophenyl]pyrrolo[2,3-b]pyridine-6-carbonyl]-3,3-dimethyl-piperazin-2-one] | 192 to 194 | 5.00 to 7.70 |
| Cc1ccccc1-c1cn(CC(C)C)c2nc(C(=O)N3CCNC(=O)C3(C)C)ccc12 [Example 52, 4-[1-isobutyl-3-(o-tolyl)pyrrolo[2,3-b]pyridine-6-carbonyl]-3,3-dimethyl-piperazin-2-one] | 225 to 230 | 5.00 to 7.70 |

Continued, values first:

| melting point [°C] | pIC50 [1] | SMILES |
| --- | --- | --- |
| 195 to 200 | 5.00 to 7.70 | COc1ccc(-c2cn(CC(C)C)c3nc(C(=O)N4CCNC(=O)C4(C)C)ccc23)cc1 [Example 111, 4-(1-isobutyl-3-(4-methoxyphenyl)-1H-pyrrolo[2,3-b]pyridine-6-carbonyl)-3,3-dimethylpiperazin-2-one] |
| 198 to 200 | < 5.00 | O=C(c1cc2c(cn1)c(-c1ccc(Cl)c(F)c1)nn2CC(F)(F)F)N1CC2CCC(C1)O2 [Example 90, (8-oxa-3-azabicyclo[3.2.1]octan-3-yl)(3-(4-chloro-3-fluorophenyl)-1-(2,2,2-trifluoroethyl)-1H-pyrazolo[4,3-c]pyridin-6-yl)methanone] |
| 185 to 187 | 5.00 to 7.70 | CC(C)Cc1nn(-c2ccc(OC(F)(F)F)cc2)c2ccc(C(=O)N3CCNC(=O)C3(C)C)nc12 [Example 79, 4-(3-isobutyl-1-(4-(trifluoromethoxy)phenyl)-1H-pyrazolo[4,3-b]pyridine-5-carbonyl)-3,3-dimethylpiperazin-2-one] |
| 84 to 88 | < 5.00 | O=C(c1cc2c(cn1)c(-c1ccc(Cl)c(F)c1)nn2CC(F)(F)F)N1CCCOCC1 [Example 89, (3-(4-chloro-3-fluorophenyl)-1-(2,2,2-trifluoroethyl)-1H-pyrazolo[4,3-c]pyridin-6-yl)(1,4-oxazepan-4-yl)methanone] |
| 202 to 204 | 5.00 to 7.70 | CC(C)Cn1cc(-c2cccc(OC(F)(F)F)c2)c2ccc(C(=O)N3CCNC(=O)C3(C)C)nc21 [Example 57, 4-[1-isobutyl-3-[3-(trifluoromethoxy)phenyl]pyrrolo[2,3-b]pyridine-6-carbonyl]-3,3-dimethyl-piperazin-2-one] |
| 205 to 210 | 5.00 to 7.70 | CC(C)Cn1cc(-c2ccc(N(C)C)nc2)c2ccc(C(=O)N3CCNC(=O)C3(C)C)nc21 [Example 109, 4-(3-(6-(dimethylamino)pyridin-3-yl)-1-isobutyl-1H-pyrrolo[2,3-b]pyridine-6-carbonyl)-3,3-dimethylpiperazin-2-one] |
| 182 to 185 | < 5.00 | COc1ccc(-n2nc(CC(C)C)c3nc(C(=O)N4CCNC(=O)C4(C)C)ccc32)cc1 [Example 93, 4-(3-isobutyl-1-(4-methoxyphenyl)-1H-pyrazolo[4,3-b]pyridine-5-carbonyl)-3,3-dimethylpiperazin-2-one] |
| 233 to 237 | 5.00 to 7.70 | CC(C)Cn1cc(N2CCCCC2)c2ccc(C(=O)N3CCNC(=O)C3(C)C)nc21 [Example 82, 4-(1-isobutyl-3-(piperidin-1-yl)-1H-pyrrolo[2,3-b]pyridine-6-carbonyl)-3,3-dimethylpiperazin-2-one] |
| 189 to 192 | < 5.00 | COc1ccc(-n2nc(CC(C)C)c3nc(C(=O)N4CCNC(=O)C4(C)C)ccc32)cn1 [Example 92, 4-(3-isobutyl-1-(6-methoxypyridin-3-yl)-1H-pyrazolo[4,3-b]pyridine-5-carbonyl)-3,3-dimethylpiperazin-2-one] |
| 185 to 190 | < 5.00 | CC(C)Cc1nn(-c2ccc(C(F)(F)F)nc2)c2ccc(C(=O)N3CCNC(=O)C3(C)C)nc12 [Example 66, 4-(3-isobutyl-1-(6-(trifluoromethyl)pyridin-3-yl)-1H-pyrazolo[4,3-b]pyridine-5-carbonyl)-3,3-dimethylpiperazin-2-one] |
| 165 to 170 | 5.00 to 7.70 | CC(C)Cn1cc(-c2cc(F)cc(F)c2)c2ccc(C(=O)N3CCNC(=O)C3(C)C)nc21 [Example 108, 4-(3-(3,5-difluorophenyl)-1-isobutyl-1H-pyrrolo[2,3-b]pyridine-6-carbonyl)-3,3-dimethylpiperazin-2-one] |
| 260 to 265 | 5.00 to 7.70 | CC(C)Cn1cc(-c2ccc(C#N)nc2)c2ccc(C(=O)N3CCNC(=O)C3(C)C)nc21 [Example 110, 5-(6-(2,2-dimethyl-3-oxopiperazine-1-carbonyl)-1-isobutyl-1H-pyrrolo[2,3-b]pyridin-3-yl)picolinonitrile] |
| 127 to 139 | < 5.00 | COc1cc(-n2nc(C(C)(C)C)c3nc(C(=O)N4CCN(c5cc(C)c(C(=O)O)c(C)n5)CC4(C)C)ccc32)ccc1Cl [Example 60, 6-(4-(3-(tert-butyl)-1-(4-chloro-3-methoxyphenyl)-1H-pyrazolo[4,3-b]pyridine-5-carbonyl)-3,3-dimethylpiperazin-1-yl)-2,4-dimethylnicotinic acid] |
